The results in this text go back to ChEMBL document CHEMBL5724914, “Linking interpersonal differences in gut microbiota composition and drug biotransformation activity” (2024).

Molecules are shown by their SMILES.

The conditions of data set [1]: human gut metagenome, 24 h, 2 µM.
The conditions of data set [2]: human gut metagenome, 24 h, 2 µM. The source holds these as a separate data set.
Data set [3] can be described thus: The drug is tested on WLS-073 corresponding to human gut metagenome with ENA study accession number: PRJEB37062 and ENA sample accession number: ERS12561749 for biotransformation under anaerobic condition. The drug concentrations were measured over 9 timepoints collected between 0 and 24 hours of incubation by liquid-chromatography-coupled mass spectrometry (LC–MS). Conditions: 2 µM.

For data set [4] the following is noted: human gut metagenome, 24 h, 2 µM. This is another data set of the same source.
For data set [5] the following is noted: human gut metagenome, 24 h, 2 µM. The source holds these as a separate data set.
The nature of data set [6]: The drug is tested on Z-023 corresponding to metagenome with ENA study accession number: PRJEB37062 and ENA sample accession number: ERS12561822 for biotransformation under anaerobic condition. The drug concentrations were measured over 9 timepoints collected between 0 and 24 hours of incubation by liquid-chromatography-coupled mass spectrometry (LC–MS). Conditions: 2 µM.

The conditions of data set [7]: human gut metagenome, 24 h, 2 µM. The source holds these as a separate data set.
For data set [8] the following is noted: human gut metagenome, 24 h, 2 µM. The source holds these as a separate data set.
For data set [9] the following is noted: human gut metagenome, 24 h, 2 µM. The source holds these as a separate data set.
The nature of data set [10]: The drug is tested on Z-025 corresponding to rabbit gut metagenome with ENA study accession number: PRJEB37062 and ENA sample accession number: ERS12561824 for biotransformation under anaerobic condition. The drug concentrations were measured over 9 timepoints collected between 0 and 24 hours of incubation by liquid-chromatography-coupled mass spectrometry (LC–MS). Particulars: 2 µM.

For data set [11] the following is noted: human gut metagenome, 24 h, 2 µM. This is another data set of the same source.
The conditions of data set [12]: human gut metagenome, 24 h, 2 µM. The source holds these as a separate data set.
A short description of data set [13]: The drug is tested on Z-012 corresponding to metagenome with ENA study accession number: PRJEB37062 and ENA sample accession number: ERS12561812 for biotransformation under anaerobic condition. The drug concentrations were measured over 9 timepoints collected between 0 and 24 hours of incubation by liquid-chromatography-coupled mass spectrometry (LC–MS). Particulars: 2 µM.

Data set [14] in a line: The drug is tested on WLS-220 corresponding to human gut metagenome with ENA study accession number: PRJEB37062 and ENA sample accession number: ERS12561769 for biotransformation under anaerobic condition. The drug concentrations were measured over 9 timepoints collected between 0 and 24 hours of incubation by liquid-chromatography-coupled mass spectrometry (LC–MS). Particulars: 2 µM.

For data set [15] the following is noted: human gut metagenome, 24 h, 2 µM. The source holds these as a separate data set.
Data set [16] is described as follows: The drug is tested on WLS-077 corresponding to human gut metagenome with ENA study accession number: PRJEB37062 and ENA sample accession number: ERS12561750 for biotransformation under anaerobic condition. The drug concentrations were measured over 9 timepoints collected between 0 and 24 hours of incubation by liquid-chromatography-coupled mass spectrometry (LC–MS). Particulars: 2 µM.

A short description of data set [17]: The drug is tested on Z-026 corresponding to metagenome with ENA study accession number: PRJEB37062 and ENA sample accession number: ERS12561825 for biotransformation under anaerobic condition. The drug concentrations were measured over 9 timepoints collected between 0 and 24 hours of incubation by liquid-chromatography-coupled mass spectrometry (LC–MS). Particulars: 2 µM.

Data set [18] is described as follows: The drug is tested on WLS-082 corresponding to human gut metagenome with ENA study accession number: PRJEB37062 and ENA sample accession number: ERS12561751 for biotransformation under anaerobic condition. The drug concentrations were measured over 9 timepoints collected between 0 and 24 hours of incubation by liquid-chromatography-coupled mass spectrometry (LC–MS). Particulars: 2 µM.

For data set [19] the following is noted: human gut metagenome, 24 h, 2 µM. This is another data set of the same source.
The conditions of data set [20]: human gut metagenome, 24 h, 2 µM. This is another data set of the same source.
Note: call rule not given here.

`COc1ccc(/C=C/C(=O)Nc2ccccc2C(=O)O)cc1OC`: the “Bacterial Biotransformation” value in data set [1] is reported as “Compound NOT metabolized”; in data set [2], “Compound NOT metabolized”; in data set [3], “Compound metabolized”; in data set [4], “Compound NOT metabolized”; in data set [5], “Compound NOT metabolized”; in data set [6] it was “Compound metabolized”. The “Bacterial Biotransformation” value in data set [7] is “Compound NOT metabolized”; in data set [8], “Compound metabolized”; in data set [9], “Compound metabolized”; in data set [10], “Compound metabolized”; in data set [11], “Compound NOT metabolized”; in data set [12], “Compound NOT metabolized”. Besides, the “Bacterial Biotransformation” value in data set [13] is reported as “Compound NOT metabolized”; in data set [14], “Compound NOT metabolized”; in data set [15] it was “Compound NOT metabolized”; in [16], “Compound metabolized”; in data set [17], “Compound metabolized”; in data set [18], “Compound metabolized”.

Consider `O=C1CCc2ccc(OCCCCN3CCN(c4cccc(Cl)c4Cl)CC3)cc2N1` [ARIPIPRAZOLE], for which the “Bacterial Biotransformation” value in [6] is reported as “Compound metabolized”; in [10], “Compound metabolized”; in data set [13], “Compound NOT metabolized”; in data set [17] it was “Compound metabolized”.

`C#C[C@]1(OC(C)=O)CC[C@H]2[C@@H]3CCC4=C[C@@H](OC(C)=O)CC[C@@H]4[C@H]3CC[C@@]21C` [ETHYNODIOL DIACETATE]: the “Bacterial Biotransformation” value in data set [1], in data set [2], in data set [19], in data set [4], in data set [5] and in data set [6] was “Compound metabolized” in each case. In addition, the “Bacterial Biotransformation” value in data set [7], in [8], in data set [9], in [10], in data set [20] and in data set [11] was “Compound metabolized” throughout. Further, the “Bacterial Biotransformation” value in data set [12], in data set [13], in data set [14], in data set [15], in data set [16] and in data set [17] was “Compound metabolized” in each case. For the same compound, the “Bacterial Biotransformation” value in data set [18] is recorded as “Compound metabolized”.

With `N#Cc1ccc2c(c1)N(CCCN1CCC(O)CC1)c1ccccc1S2` [PERICIAZINE], the “Bacterial Biotransformation” value in [1] is “Compound NOT metabolized”; in data set [2] it was “Compound metabolized”; in data set [3] it was “Compound NOT metabolized”; in data set [19] it was “Compound metabolized”; in data set [4], “Compound NOT metabolized”; in [5], “Compound metabolized”. The “Bacterial Biotransformation” value in data set [7] was “Compound NOT metabolized”; in [8], “Compound metabolized”; in data set [9], “Compound metabolized”; in data set [20], “Compound NOT metabolized”; in data set [11], “Compound NOT metabolized”; in [12], “Compound metabolized”. Moreover, the “Bacterial Biotransformation” value is recorded as “Compound metabolized” in data set [14], “Compound metabolized” in data set [15], “Compound NOT metabolized” in data set [16] and “Compound NOT metabolized” in data set [18].

With `O=C([O-])C[C@H](O)C[C@H](O)/C=C/c1c(C2CC2)nc2ccccc2c1-c1ccc(F)cc1.O=C([O-])C[C@H](O)C[C@H](O)/C=C/c1c(C2CC2)nc2ccccc2c1-c1ccc(F)cc1.[Ca+2]` [PITAVASTATIN CALCIUM], the “Bacterial Biotransformation” value in data set [1] was “Compound metabolized”; in data set [2], “Compound metabolized”; in data set [3], “Compound metabolized”; in data set [19], “Compound NOT metabolized”; in data set [4], “Compound NOT metabolized”; in [5], “Compound metabolized”. Also, the “Bacterial Biotransformation” value is recorded as “Compound metabolized” in [7]; “Compound metabolized” in data set [8]; “Compound metabolized” in data set [9]; “Compound metabolized” in data set [20]; “Compound NOT metabolized” in data set [11]; “Compound NOT metabolized” in [12]. The “Bacterial Biotransformation” value in [14], in data set [15], in data set [16] and in [18] was “Compound metabolized” throughout.

Turning to `C[C@]12C=CC(=O)C=C1CC[C@@H]1[C@@H]2C(=O)C[C@@]2(C)[C@H]1CC[C@]2(O)C(=O)CO` [PREDNISONE], the “Bacterial Biotransformation” value in [1] is recorded as “Compound metabolized”; in data set [2], “Compound metabolized”; in [3], “Compound metabolized”; in data set [19], “Compound metabolized”; in data set [4], “Compound NOT metabolized”; in data set [5] it was “Compound metabolized”. Also, the “Bacterial Biotransformation” value in data set [6] is “Compound metabolized”; in data set [8], “Compound metabolized”; in [10], “Compound NOT metabolized”; in data set [20], “Compound metabolized”; in [11] it was “Compound metabolized”; in data set [12], “Compound metabolized”. Besides, the “Bacterial Biotransformation” value in data set [13], in data set [14], in [15], in data set [16], in [17] and in data set [18] was “Compound metabolized” in each case.

Regarding `CC(=O)SCC(Cc1ccccc1)C(=O)NCC(=O)OCc1ccccc1` (stereo not drawn) [RACECADOTRIL], the “Bacterial Biotransformation” value in data set [6], in data set [10], in data set [13] and in data set [17] was “Compound metabolized” each time.

As for `N#Cc1ccc2[nH]cc(CCCCN3CCN(c4ccc5oc(C(N)=O)cc5c4)CC3)c2c1` [VILAZODONE], the “Bacterial Biotransformation” value in data set [1] is “Compound NOT metabolized”; in data set [2], “Compound metabolized”; in data set [3], “Compound metabolized”; in data set [5], “Compound metabolized”; in [6], “Compound metabolized”; in [7], “Compound metabolized”. In addition, the “Bacterial Biotransformation” value in data set [8] was “Compound metabolized”; in data set [9], “Compound metabolized”; in [10] it was “Compound NOT metabolized”; in [20], “Compound metabolized”; in [11], “Compound metabolized”; in data set [12] it was “Compound metabolized”. The “Bacterial Biotransformation” value in data set [13] was “Compound NOT metabolized”; in data set [14], “Compound metabolized”; in [15], “Compound metabolized”; in data set [16] it was “Compound metabolized”; in [17], “Compound NOT metabolized”; in data set [18], “Compound metabolized”.
